Tested on: Clostridium ljungdahlii
Assay: Example 1 redone at shaking speed 100 min-1 (Example 1b)
Assay type: cell-based
Experimental: For the production, anaerobic carbonate buffer (adjusted with KOH 1.4 g/L) was used. The only addition to the buffer was L-cysteine HCl at different concentrations.
For identical autotrophic productions, 500 mL septum bottles were filled with 100 mL carbonate buffer and shaken at 150 min^−1 in an open shaking water bath shaker Innova 3100 by New Brunswick Scientific. The reactions were carried out at 37° C. with manual control of the pH. Once the pH dropped below 5.5, KOH was replenished from a stock solution of 140 g/L. In the present experiments the pH in both reactors were checked at the following points in time 50.3 h, 73.3 h and corrected by the addition of each 1.4 g/L KOH manually.
The reactors were inoculated with a synthesis gas mixture of 67% H2 and 33% CO2 and pressure of 0.8 bar applied. To replenish the depleted gas, the gas above the reactors was replaced once a day and again the pressure brought to 0.8 bars.
The reactor was started by seeding autotrophic grown cells at an OD of 0.2. The preculture was carried out continuously in a 1 L bottle with 500 mL complex medium. The complex medium consisting of 1 g/lNH4Cl, 0.1 g/l KCl, 0.2 g/l MgSO4 ×7 H2O, 0.8 g/l NaCl, 0.1 g/l KH2PO4, 20 mg/l CaCl2 ×2 H2O, 20 g/l MES, 1 g/l yeast extract, 0.4 g/L L-Cysteine-HC1, 20 mg/l nitrilotriacetic acid, 10 mg/l MnSO4×H2O, 8 mg/l (NH4)2Fe(SO4)2×6 H2O, 2 mg/l CoCl2×6 H2O, 2 mg/l ZnSO4 33 7 H2O, 0.2 mg/l CuCl 2 33 2 H2O, 0.2 mg/l Na2MoO4×2 H2O, 0.2 mg/l NiCl2×6 H2O, 0.2 mg/l Na2SeO4, 0.2 mg/l Na2WO4×2 H2O, 20 μg/l d-Biotin, 20 μg/l folic acid, 100 μg/l pyridoxine HCl, 50μg/l thiamine-HCl×H2O, 50 μg l of riboflavin, 50 μg/l nicotinic acid, 50 μg/l Ca-pantothenate, 1 μg/l vitamin B12, 50μg/l p-aminobenzoate, 50 μg/l lipoic acid. The culture was then gassed continuously with synthesis gas (67% H2, 33% CO2) at a flow rate of 3 l/h over a filter with pore size 10 microns. The cells were in late log phase growth at an OD of 0.37 and where anaerobically centrifuged (4500 rpm, 4300 g, 20° C., 10 min). The supernatant was discarded and the cell pellet resuspended in 10 ml carbonate buffer. The prepared cells were then used to inoculate the actual tests.
When sampling each 5 ml sample was removed for determination of OD600, pH and the product spectrum. The determination of the product concentration was performed using quantitative 1H-NMR spectroscopy. As an internal quantification standard sodium trimethylsilylpropionate was used (T(M)SP).
The example 1 above was redone with only a difference in the shaking speed on the septum bottles for autotrophic productions. The shaking speed used was 100 min^−1.
A reporting error in example 1 was noticed where the results of cysteine for reactor 1 and 2 were switched.

[1] = reactor 1, 0.1 g/L L-Cysteine-HCl, 100 min-1, 0.0 h
[2] = reactor 1, 0.1 g/L L-Cysteine-HCl, 100 min-1, 24.5 h
[3] = reactor 1, 0.1 g/L L-Cysteine-HCl, 100 min-1, 50.3 h
[4] = reactor 1, 0.1 g/L L-Cysteine-HCl, 100 min-1, 73.3 h
[5] = reactor 1, 0.1 g/L L-Cysteine-HCl, 100 min-1, 92.3 h
[6] = reactor 2, 0.4 g/L L-Cysteine-HCl, 100 min-1, 0.0 h
[7] = reactor 2, 0.4 g/L L-Cysteine-HCl, 100 min-1, 24.5 h
[8] = reactor 2, 0.4 g/L L-Cysteine-HCl, 100 min-1, 50.3 h
[9] = reactor 2, 0.4 g/L L-Cysteine-HCl, 100 min-1, 73.3 h
[10] = reactor 2, 0.4 g/L L-Cysteine-HCl, 100 min-1, 92.3 h

SMILES: Cl.N[C@@H](CS)C(=O)O [L-Cysteine-HCl, L-cysteine hydrochloride]
- Acetate (NMR) [1]: 13 mg/L
- Ethanol (NMR) [1]: 6 mg/L
- OD600 [1]: 0.25
- Acetate (NMR) [2]: 1418 mg/L
- Ethanol (NMR) [2]: 19 mg/L
- OD600 [2]: 0.25
- Δp [2]: 0.6 bar
- Acetate (NMR) [3]: 2556 mg/L
- Ethanol (NMR) [3]: 130 mg/L
- OD600 [3]: 0.30
- Δp [3]: 0.6 bar
- OD600 [4]: 0.30
- Δp [4]: 0.6 bar
- Acetate (NMR) [5]: 6960 mg/L
- Ethanol (NMR) [5]: 321 mg/L
- OD600 [5]: 0.26
- Δp [5]: 0.4 bar
- Acetate (NMR) [6]: 15 mg/L
- Ethanol (NMR) [6]: 8 mg/L
- OD600 [6]: 0.24
- Acetate (NMR) [7]: 2331 mg/L
- Ethanol (NMR) [7]: 27 mg/L
- OD600 [7]: 0.23
- Δp [7]: 0.6 bar
- Acetate (NMR) [8]: 3197 mg/L
- Ethanol (NMR) [8]: 128 mg/L
- OD600 [8]: 0.26
- Δp [8]: 0.5 bar
- OD600 [9]: 0.22
- Δp [9]: 0.3 bar
- Acetate (NMR) [10]: 5067 mg/L
- Ethanol (NMR) [10]: 150 mg/L
- OD600 [10]: 0.22
- Δp [10]: 0.3 bar

From patent publication US20160177259A1, “[…]” (Evonik Degussa GmbH, priority 2014, published 2016)
